In publication PMC9401487 (Clinical Cancer Research, 2021):
Entries after “also recorded” stand apart in the source; their conditions may differ.

Test system: patients with advanced solid tumors
Assay: Phase I safety and tolerability
Format: in vivo, human
[1] = Cohort 3 (N=3), 40 mg BID 10 days + carboplatin
[2] = Cohort 3: 40 mg BID days 4–13 (10 days) + carboplatin AUC5, 3 patients
[3] = Cohort 4 (N=3), 40 mg BID 7 days + carboplatin
[4] = Cohort 4: 40 mg BID days 4–10 (7 days) + carboplatin AUC5, 3 patients
[5] = Cohort 5 (N=8), 60 mg QD 7 days + carboplatin

C[C@@H]1COCCN1c1cc(C2([S@](C)(=N)=O)CC2)nc(-c2cc[nH]c3nccc2-3)n1 [ceralasertib]
TEAE Anemia, Grade ≥3 [1]: 0 patients, n (%)
TEAE Any AE, Grade 1–2 [1]: 1 (33) patients, n (%)
TEAE Any AE, Grade ≥3 [1]: 2 (67) patients, n (%)
TEAE Arthralgia, Grade 1–2 [1]: 0 patients, n (%)
TEAE Arthralgia, Grade ≥3 [1]: 0 patients, n (%)
TEAE Aspartate aminotransferase increased, Grade 1–2 [1]: 0 patients, n (%)
TEAE Aspartate aminotransferase increased, Grade ≥3 [1]: 0 patients, n (%)
TEAE Constipation, Grade 1–2 [1]: 1 (33) patients, n (%)
TEAE Constipation, Grade ≥3 [1]: 0 patients, n (%)
TEAE Contusion, Grade 1–2 [1]: 2 (67) patients, n (%)
TEAE Contusion, Grade ≥3 [1]: 0 patients, n (%)
TEAE Cough, Grade 1–2 [1]: 0 patients, n (%)
TEAE Cough, Grade ≥3 [1]: 0 patients, n (%)
TEAE Decreased appetite, Grade 1–2 [1]: 1 (33) patients, n (%)
TEAE Decreased appetite, Grade ≥3 [1]: 0 patients, n (%)
TEAE Diarrhea, Grade 1–2 [1]: 0 patients, n (%)
TEAE Diarrhea, Grade ≥3 [1]: 0 patients, n (%)
TEAE Dizziness, Grade 1–2 [1]: 0 patients, n (%)
TEAE Dizziness, Grade ≥3 [1]: 0 patients, n (%)
TEAE Dyspnea, Grade 1–2 [1]: 0 patients, n (%)
TEAE Dyspnea, Grade ≥3 [1]: 0 patients, n (%)
TEAE Fatigue, Grade 1–2 [1]: 1 (33) patients, n (%)
TEAE Fatigue, Grade ≥3 [1]: 0 patients, n (%)
TEAE Hypocalcemia, Grade 1–2 [1]: 0 patients, n (%)
TEAE Hypocalcemia, Grade ≥3 [1]: 0 patients, n (%)
TEAE Insomnia, Grade 1–2 [1]: 1 (33) patients, n (%)
TEAE Insomnia, Grade ≥3 [1]: 0 patients, n (%)
TEAE Lower respiratory tract infection, Grade 1–2 [1]: 0 patients, n (%)
TEAE Lower respiratory tract infection, Grade ≥3 [1]: 0 patients, n (%)
TEAE Nausea, Grade 1–2 [1]: 0 patients, n (%)
TEAE Nausea, Grade ≥3 [1]: 0 patients, n (%)
TEAE Neutropenia, Grade 1–2 [1]: 1 (33) patients, n (%)
TEAE Neutropenia, Grade ≥3 [1]: 2 (67) patients, n (%)
TEAE Neutrophil count decreased, Grade 1–2 [1]: 0 patients, n (%)
TEAE Neutrophil count decreased, Grade ≥3 [1]: 0 patients, n (%)
TEAE Platelet count decreased, Grade 1–2 [1]: 1 (33) patients, n (%)
TEAE Platelet count decreased, Grade ≥3 [1]: 0 patients, n (%)
TEAE Pyrexia, Grade 1–2 [1]: 0 patients, n (%)
TEAE Pyrexia, Grade ≥3 [1]: 0 patients, n (%)
TEAE Thrombocytopenia, Grade 1–2 [1]: 1 (33) patients, n (%)
TEAE Thrombocytopenia, Grade ≥3 [1]: 2 (67) patients, n (%)
TEAE Upper respiratory tract infection, Grade 1–2 [1]: 0 patients, n (%)
TEAE Upper respiratory tract infection, Grade ≥3 [1]: 0 patients, n (%)
TEAE Vomiting, Grade 1–2 [1]: 0 patients, n (%)
TEAE Vomiting, Grade ≥3 [1]: 0 patients, n (%)
TEAE White blood cell count decreased, Grade 1–2 [1]: 0 patients, n (%)
TEAE White blood cell count decreased, Grade ≥3 [1]: 0 patients, n (%)
Number of DLTs [2]: no DLTs
SRC decision (tolerability) [2]: declared intolerable; also recorded: Not tolerated
TEAE Abdominal pain, Grade 1–2 [3]: 1 (33) patients, n (%)
TEAE Abdominal pain, Grade ≥3 [3]: 0 patients, n (%)
TEAE Alanine aminotransferase increased, Grade 1–2 [3]: 1 (33) patients, n (%)
TEAE Alanine aminotransferase increased, Grade ≥3 [3]: 0 patients, n (%)
TEAE Anemia, Grade 1–2 [3]: 1 (33) patients, n (%)
TEAE Anemia, Grade ≥3 [3]: 1 (33) patients, n (%)
TEAE Any AE, Grade 1–2 [3]: 0 patients, n (%)
TEAE Any AE, Grade ≥3 [3]: 3 (100) patients, n (%)
TEAE Arthralgia, Grade 1–2 [3]: 0 patients, n (%)
TEAE Arthralgia, Grade ≥3 [3]: 0 patients, n (%)
TEAE Aspartate aminotransferase increased, Grade 1–2 [3]: 0 patients, n (%)
TEAE Aspartate aminotransferase increased, Grade ≥3 [3]: 0 patients, n (%)
TEAE Constipation, Grade 1–2 [3]: 1 (33) patients, n (%)
TEAE Constipation, Grade ≥3 [3]: 0 patients, n (%)
TEAE Contusion, Grade 1–2 [3]: 0 patients, n (%)
TEAE Contusion, Grade ≥3 [3]: 0 patients, n (%)
TEAE Cough, Grade 1–2 [3]: 0 patients, n (%)
TEAE Cough, Grade ≥3 [3]: 0 patients, n (%)
TEAE Decreased appetite, Grade 1–2 [3]: 1 (33) patients, n (%)
TEAE Decreased appetite, Grade ≥3 [3]: 0 patients, n (%)
TEAE Diarrhea, Grade 1–2 [3]: 0 patients, n (%)
TEAE Diarrhea, Grade ≥3 [3]: 0 patients, n (%)
TEAE Dizziness, Grade 1–2 [3]: 1 (33) patients, n (%)
TEAE Dizziness, Grade ≥3 [3]: 0 patients, n (%)
TEAE Dyspnea, Grade 1–2 [3]: 0 patients, n (%)
TEAE Dyspnea, Grade ≥3 [3]: 0 patients, n (%)
TEAE Fatigue, Grade 1–2 [3]: 1 (33) patients, n (%)
TEAE Fatigue, Grade ≥3 [3]: 0 patients, n (%)
TEAE Hypocalcemia, Grade 1–2 [3]: 0 patients, n (%)
TEAE Hypocalcemia, Grade ≥3 [3]: 0 patients, n (%)
TEAE Insomnia, Grade 1–2 [3]: 0 patients, n (%)
TEAE Insomnia, Grade ≥3 [3]: 0 patients, n (%)
TEAE Lower respiratory tract infection, Grade 1–2 [3]: 0 patients, n (%)
TEAE Lower respiratory tract infection, Grade ≥3 [3]: 0 patients, n (%)
TEAE Nausea, Grade 1–2 [3]: 2 (67) patients, n (%)
TEAE Nausea, Grade ≥3 [3]: 0 patients, n (%)
TEAE Neutropenia, Grade 1–2 [3]: 1 (33) patients, n (%)
TEAE Neutropenia, Grade ≥3 [3]: 1 (33) patients, n (%)
TEAE Neutrophil count decreased, Grade 1–2 [3]: 0 patients, n (%)
TEAE Neutrophil count decreased, Grade ≥3 [3]: 1 (33) patients, n (%)
TEAE Platelet count decreased, Grade 1–2 [3]: 0 patients, n (%)
TEAE Platelet count decreased, Grade ≥3 [3]: 0 patients, n (%)
TEAE Pyrexia, Grade 1–2 [3]: 1 (33) patients, n (%)
TEAE Pyrexia, Grade ≥3 [3]: 0 patients, n (%)
TEAE Thrombocytopenia, Grade 1–2 [3]: 0 patients, n (%)
TEAE Thrombocytopenia, Grade ≥3 [3]: 3 (100) patients, n (%)
TEAE Upper respiratory tract infection, Grade 1–2 [3]: 0 patients, n (%)
TEAE Upper respiratory tract infection, Grade ≥3 [3]: 0 patients, n (%)
TEAE Vomiting, Grade 1–2 [3]: 0 patients, n (%)
TEAE Vomiting, Grade ≥3 [3]: 0 patients, n (%)
TEAE White blood cell count decreased, Grade 1–2 [3]: 0 patients, n (%)
TEAE White blood cell count decreased, Grade ≥3 [3]: 1 (33) patients, n (%)
Number of DLTs [4]: a DLT of grade 4 thrombocytopenia and grade 3 neutropenia
SRC decision (tolerability) [4]: declared intolerable; also recorded: Not tolerated
TEAE Abdominal pain, Grade 1–2 [5]: 1 (13) patients, n (%)
TEAE Abdominal pain, Grade ≥3 [5]: 0 patients, n (%)
TEAE Alanine aminotransferase increased, Grade 1–2 [5]: 0 patients, n (%)
TEAE Alanine aminotransferase increased, Grade ≥3 [5]: 1 (13) patients, n (%)
TEAE Anemia, Grade 1–2 [5]: 3 (38) patients, n (%)
TEAE Anemia, Grade ≥3 [5]: 3 (38) patients, n (%)
TEAE Any AE, Grade 1–2 [5]: 4 (50) patients, n (%)
TEAE Any AE, Grade ≥3 [5]: 4 (50) patients, n (%)
